Reference: patent US20230085307A1, “PYRIDAZINONE COMPOUND AND HERBICIDE” (NISSAN CHEMICAL CORPORATION, priority 2019, published 2023)

Columns and labels:
late watergrass = test: Test Example 1: herbicidal activity, application before weed generation under submerged conditions (Table 16, symbol A); assay type: in vivo, late watergrass (Echinochloa oryzicola); conditions: 320 g/ha applied herbicide
In short: (§1)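 Alluvial soil was flooded to 4 cm depth, weed seeds were sown mixed and 2.5-leaf rice seedlings were transplanted. On sowing day, the compound's emulsion, diluted in water to a set dose, was applied to the water surface. Plants grew at 25–30 °C and were scored 0–5 after three weeks.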

Japanese bulrush = test: Test Example 1: herbicidal activity, application before weed generation under submerged conditions (Table 16, symbol B); assay type: in vivo, Japanese bulrush (Schoenoplectus juncoides); conditions: 320 g/ha applied herbicide
In short: as §1

oval-leafed pondweed = test: Test Example 1: herbicidal activity, application before weed generation under submerged conditions (Table 16, symbol C); assay type: in vivo, oval-leafed pondweed (Monochoria vaginalis); conditions: 320 g/ha applied herbicide
In short: as §1

southern crabgrass [1] = test: Test Example 5: herbicidal effect by foliage application, plastic box (Table 20, symbol F); assay type: in vivo, southern crabgrass (Digitaria ciliaris); conditions: foliage application, three weeks after application
In short: (§2)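 Plants sown in sterilized diluvial soil and grown 14 days in a greenhouse at 25° C to 30° C, then sprayed on the foliage with the compound's emulsion diluted in water to a predetermined herbicide amount. Injury to weeds and crops scored three weeks after application on a visual rating scale.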

green foxtail [2] = test: Test Example 5: herbicidal effect by foliage application, plastic box (Table 20, symbol G); assay type: in vivo, green foxtail (Setaria viridis); conditions: foliage application, three weeks after application
In short: as §2

barnyard grass [3] = test: Test Example 5: herbicidal effect by foliage application, plastic box (Table 20, symbol H); assay type: in vivo, barnyard grass (Echinochloa crus-galli); conditions: foliage application, three weeks after application
In short: as §2

wild oat [4] = test: Test Example 5: herbicidal effect by foliage application, plastic box (Table 20, symbol I); assay type: in vivo, wild oat (Avena fatua); conditions: foliage application, three weeks after application
In short: as §2

blackgrass [5] = test: Test Example 5: herbicidal effect by foliage application, plastic box (Table 20, symbol J); assay type: in vivo, blackgrass (Alopecurus myosuroides); conditions: foliage application, three weeks after application
In short: as §2

Italian ryegrass [6] = test: Test Example 5: herbicidal effect by foliage application, plastic box (Table 20, symbol K); assay type: in vivo, Italian ryegrass (Lolium multiflorum); conditions: foliage application, three weeks after application
In short: as §2

windgrass [7] = test: Test Example 5: herbicidal effect by foliage application, plastic box (Table 20, symbol L); assay type: in vivo, windgrass (Apera spica-venti); conditions: foliage application, three weeks after application
In short: as §2

velvetleaf [8] = test: Test Example 5: herbicidal effect by foliage application, plastic box (Table 20, symbol M); assay type: in vivo, velvetleaf (Abutilon theophrasti); conditions: foliage application, three weeks after application
In short: as §2

redroot pigweed [9] = test: Test Example 5: herbicidal effect by foliage application, plastic box (Table 20, symbol N); assay type: in vivo, redroot pigweed (Amaranthus retroflexus); conditions: foliage application, three weeks after application
In short: as §2

lambsquarters [10] = test: Test Example 5: herbicidal effect by foliage application, plastic box (Table 20, symbol O); assay type: in vivo, lambsquarters (Chenopodium album); conditions: foliage application, three weeks after application
In short: as §2

chickweed [11] = test: Test Example 5: herbicidal effect by foliage application, plastic box (Table 20, symbol P); assay type: in vivo, common chickweed (Stellaria media); conditions: foliage application, three weeks after application
In short: as §2

false cleavers = test: Test Example 5: herbicidal effect by foliage application, plastic box (Table 20, symbol Q); assay type: in vivo, false cleavers (Galium spurium); conditions: foliage application, three weeks after application
In short: as §2

persian speedwell [12] = test: Test Example 5: herbicidal effect by foliage application, plastic box (Table 20, symbol R); assay type: in vivo, Persian speedwell (Veronica persica); conditions: foliage application, three weeks after application
In short: as §2

barnyard grass [13] = test: Test Example 3: herbicidal effect by foliage application, Wagner pot (Table 18, symbol H); assay type: in vivo, barnyard grass (Echinochloa crus-galli); conditions: 320 g/ha
In short: (§3)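 Plants were sown in alluvial soil held under 0.1–0.5 cm standing water and grown 14 days in a greenhouse at 25–30 °C. An emulsifiable formulation, water-diluted to the set dose, was then sprayed onto the foliage, and effects were scored three weeks later using previously defined criteria.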

Chinese sprangletop = test: Test Example 3: herbicidal effect by foliage application, Wagner pot (Table 18, symbol D); assay type: in vivo, chinese sprangletop (Leptochloa chinensis); conditions: 320 g/ha
In short: as §3

rice flat sedge = test: Test Example 3: herbicidal effect by foliage application, Wagner pot (Table 18, symbol E); assay type: in vivo, rice flat sedge (Cyperus iria); conditions: 320 g/ha
In short: as §3

southern crabgrass [14] = test: Test Example 4: herbicidal effect by soil treatment (Table 19, symbol F); assay type: in vivo, southern crabgrass (Digitaria ciliaris); conditions: AAH 320 g/ha
In short: (§4)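 Seeds were sown in sterilized diluvial soil and covered with about 1.5 cm of soil. An emulsion formulation diluted with water to a predetermined herbicide amount was sprayed evenly onto the soil surface. Plants grew in a greenhouse at 25° C. to 30° C., and the effect was scored three weeks after application using criteria from an earlier test.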

green foxtail [15] = test: Test Example 4: herbicidal effect by soil treatment (Table 19, symbol G); assay type: in vivo, green foxtail (Setaria viridis); conditions: AAH 320 g/ha
In short: as §4

barnyard grass [16] = test: Test Example 4: herbicidal effect by soil treatment (Table 19, symbol H); assay type: in vivo, barnyard grass (Echinochloa crus-galli); conditions: AAH 320 g/ha
In short: as §4

wild oat [17] = test: Test Example 4: herbicidal effect by soil treatment (Table 19, symbol I); assay type: in vivo, wild oat (Avena fatua); conditions: AAH 320 g/ha
In short: as §4

blackgrass [18] = test: Test Example 4: herbicidal effect by soil treatment (Table 19, symbol J); assay type: in vivo, blackgrass (Alopecurus myosuroides); conditions: AAH 320 g/ha
In short: as §4

Italian ryegrass [19] = test: Test Example 4: herbicidal effect by soil treatment (Table 19, symbol K); assay type: in vivo, Italian ryegrass (Lolium multiflorum); conditions: AAH 320 g/ha
In short: as §4

windgrass [20] = test: Test Example 4: herbicidal effect by soil treatment (Table 19, symbol L); assay type: in vivo, windgrass (Apera spica-venti); conditions: AAH 320 g/ha
In short: as §4

velvetleaf [21] = test: Test Example 4: herbicidal effect by soil treatment (Table 19, symbol M); assay type: in vivo, velvetleaf (Abutilon theophrasti); conditions: AAH 320 g/ha
In short: as §4

redroot pigweed [22] = test: Test Example 4: herbicidal effect by soil treatment (Table 19, symbol N); assay type: in vivo, redroot pigweed (Amaranthus retroflexus); conditions: AAH 320 g/ha
In short: as §4

lambsquarters [23] = test: Test Example 4: herbicidal effect by soil treatment (Table 19, symbol O); assay type: in vivo, lambsquarters (Chenopodium album); conditions: AAH 320 g/ha
In short: as §4

chickweed [24] = test: Test Example 4: herbicidal effect by soil treatment (Table 19, symbol P); assay type: in vivo, common chickweed (Stellaria media); conditions: AAH 320 g/ha
In short: as §4

persian speedwell [25] = test: Test Example 4: herbicidal effect by soil treatment (Table 19, symbol R); assay type: in vivo, Persian speedwell (Veronica persica); conditions: AAH 320 g/ha
In short: as §4

CCCCCCOc1ccc(-c2sc3ccccc3c2-c2c(OC(=O)CCC)c(C)nn(C)c2=O)cc1 [1-029]
Herbicidal effect on A: late watergrass (grade 0-5) (late watergrass): 0 (Herbicidal rate of 5% or less (almost no effect))
Herbicidal effect on B: Japanese bulrush (grade 0-5) (Japanese bulrush): 1 (Herbicidal rate of 5% or more and less than 20%)
Herbicidal effect on C: oval-leafed pondweed (grade 0-5) (oval-leafed pondweed): 2 (Herbicidal rate of 20% or more and less than 40%)
herbicidal effect grade, F: southern crabgrass (southern crabgrass [1]; 320 g/ha): 0 (Herbicidal rate of 5% or less (almost no effect))
herbicidal effect grade, G: green foxtail (green foxtail [2]; 320 g/ha): 0 (Herbicidal rate of 5% or less (almost no effect))
herbicidal effect grade, H: barnyard grass (barnyard grass [3]; 320 g/ha): 0 (Herbicidal rate of 5% or less (almost no effect))
herbicidal effect grade, I: wild oat (wild oat [4]; 320 g/ha): 0 (Herbicidal rate of 5% or less (almost no effect))
herbicidal effect grade, J: blackgrass (blackgrass [5]; 320 g/ha): 0 (Herbicidal rate of 5% or less (almost no effect))
herbicidal effect grade, K: Italian ryegrass (Italian ryegrass [6]; 320 g/ha): 0 (Herbicidal rate of 5% or less (almost no effect))
herbicidal effect grade, L: windgrass (windgrass [7]; 320 g/ha): 0 (Herbicidal rate of 5% or less (almost no effect))
herbicidal effect grade, M: velvetleaf (velvetleaf [8]; 320 g/ha): 2 (Herbicidal rate of 20% or more and less than 40%)
herbicidal effect grade, N: redroot pigweed (redroot pigweed [9]; 320 g/ha): 4 (Herbicidal rate of 70% or more and less than 90%)
herbicidal effect grade, O: lambsquarters (lambsquarters [10]; 320 g/ha): 2 (Herbicidal rate of 20% or more and less than 40%)
herbicidal effect grade, P: chickweed (chickweed [11]; 320 g/ha): 5 (Herbicidal rate of 90% or more (almost completely withered))
herbicidal effect grade, Q: false cleavers (false cleavers; 320 g/ha): 1 (Herbicidal rate of 5% or more and less than 20%)
herbicidal effect grade, R: persian speedwell (persian speedwell [12]; 320 g/ha): 0 (Herbicidal rate of 5% or less (almost no effect))

COc1nn(C)c(=O)c(-c2c(-c3ccc(F)c(F)c3)sc3ccccc23)c1O [1-172]
herbicidal effect on H (barnyard grass), rating 0-5 (barnyard grass [13]): 0 (Herbicidal rate of 5% or less (almost no effect))
herbicidal effect on D (Chinese sprangletop), rating 0-5 (Chinese sprangletop): 0 (Herbicidal rate of 5% or less (almost no effect))
herbicidal effect on E (rice flat sedge), rating 0-5 (rice flat sedge): 5 (Herbicidal rate of 90% or more (almost completely withered))
F: southern crabgrass, herbicidal effect rating (southern crabgrass [14]): 2 (Herbicidal rate of 20% or more and less than 40%)
G: green foxtail, herbicidal effect rating (green foxtail [15]): 5 (Herbicidal rate of 90% or more (almost completely withered))
H: barnyard grass, herbicidal effect rating (barnyard grass [16]): 0 (Herbicidal rate of 5% or less (almost no effect))
I: wild oat, herbicidal effect rating (wild oat [17]): 0 (Herbicidal rate of 5% or less (almost no effect))
J: blackgrass, herbicidal effect rating (blackgrass [18]): 0 (Herbicidal rate of 5% or less (almost no effect))
K: Italian ryegrass, herbicidal effect rating (Italian ryegrass [19]): 1 (Herbicidal rate of 5% or more and less than 20%)
L: windgrass, herbicidal effect rating (windgrass [20]): 0 (Herbicidal rate of 5% or less (almost no effect))
M: velvetleaf, herbicidal effect rating (velvetleaf [21]): 1 (Herbicidal rate of 5% or more and less than 20%)
N: redroot pigweed, herbicidal effect rating (redroot pigweed [22]): 5 (Herbicidal rate of 90% or more (almost completely withered))
O: lambsquarters, herbicidal effect rating (lambsquarters [23]): 5 (Herbicidal rate of 90% or more (almost completely withered))
P: chickweed, herbicidal effect rating (chickweed [24]): 5 (Herbicidal rate of 90% or more (almost completely withered))
R: persian speedwell, herbicidal effect rating (persian speedwell [25]): 5 (Herbicidal rate of 90% or more (almost completely withered))
F: southern crabgrass, herbicidal effect (southern crabgrass [1]; AAH 320 g/ha): 0 (Herbicidal rate of 5% or less (almost no effect))
G: green foxtail, herbicidal effect (green foxtail [2]; AAH 320 g/ha): 4 (Herbicidal rate of 70% or more and less than 90%)
H: barnyard grass, herbicidal effect (barnyard grass [3]; AAH 320 g/ha): 0 (Herbicidal rate of 5% or less (almost no effect))
I: wild oat, herbicidal effect (wild oat [4]; AAH 320 g/ha): 0 (Herbicidal rate of 5% or less (almost no effect))
J: blackgrass, herbicidal effect (blackgrass [5]; AAH 320 g/ha): 0 (Herbicidal rate of 5% or less (almost no effect))
K: Italian ryegrass, herbicidal effect (Italian ryegrass [6]; AAH 320 g/ha): 3 (Herbicidal rate of 40% or more and less than 70%)
L: windgrass, herbicidal effect (windgrass [7]; AAH 320 g/ha): 0 (Herbicidal rate of 5% or less (almost no effect))
M: velvetleaf, herbicidal effect (velvetleaf [8]; AAH 320 g/ha): 3 (Herbicidal rate of 40% or more and less than 70%)
N: redroot pigweed, herbicidal effect (redroot pigweed [9]; AAH 320 g/ha): 5 (Herbicidal rate of 90% or more (almost completely withered))
O: lambsquarters, herbicidal effect (lambsquarters [10]; AAH 320 g/ha): 5 (Herbicidal rate of 90% or more (almost completely withered))
P: chickweed, herbicidal effect (chickweed [11]; AAH 320 g/ha): 5 (Herbicidal rate of 90% or more (almost completely withered))
Q: false cleavers, herbicidal effect (false cleavers; AAH 320 g/ha): 5 (Herbicidal rate of 90% or more (almost completely withered))
R: persian speedwell, herbicidal effect (persian speedwell [12]; AAH 320 g/ha): 5 (Herbicidal rate of 90% or more (almost completely withered))
